Data reported in US11213517B2, “Pharmaceutical combination comprising a T-type calcium channel blocker” (IDORSIA PHARMACEUTICALS LTD, priority 2016, dated 2022).
Several values for one entry are separate records, joined by “and”; a condition that tells them apart may be missing. Equal entries are not always repeated. Where two headings read alike, the source gives them in different places.

Columns and labels:
[1] = test system: audiogenic seizure-sensitive juvenile DBA/2J mice; test: Audiogenic seizure-sensitive juvenile DBA/2J mouse model of generalized tonic-clonic seizures; format: in vivo; parameters: key: 0 none, 1 wild running, 2 clonus, 3 hind-limb tonic extension; settings: oral gavage, mean ± SEM
Excerpt: Audiogenic Seizure-Sensitive Juvenile DBA/2J Mouse Model of Generalized Tonic-Clonic Seizures
The inbred DBA/2J mouse strain carries an increased general susceptibility for acute generalized convulsive seizures induced by either pharmacological, electrical or, as juvenile, auditory stimuli. At the age of 17 to 28 days (juvenile), they show tonic-clonic convulsions when exposed to a loud tone.
Male juvenile DBA/2J mice (22-24 days old, body weight between 6.6 and 14.5 grams) were used. Each mouse was placed individually in the exposure chamber, an hemispheric acrylic glass dome (diameter: 50 cm) within a sound-attenuated box. After 60 seconds of habituation, an auditory stimulus of mixed frequency tone (15-20 kHz at 110 dB) was played from a speaker placed on the top center of the dome.
The sound-attenuated box was equipped with lights and a camera system in order to observe and record the behavioral seizure response classified as following: • stage 0, no response • stage 1, wild running • stage 2, clonus • stage 3, tonic extension of the hind limbs.
(§1) Different combination efficacy experiments are performed. […] Each experiment consists of four treatment groups: • 1. Vehicle (10% Polyethylene glycol400 (PEG400)/90% methylcellulose (0.5% in water; MC0.5%)), 3 h before exposure to the auditory stimulus+vehicle, 1 h before exposure to the auditory stimulus; • 2. COMPOUND 1 (in 10% PEG400/90% MC0.5%), 3 h before exposure to the auditory stimulus+vehicle, 1 h before exposure to the auditory stimulus; • 3. Vehicle, 3 h before exposure to the auditory stimulus+AED (in 10% PEG400/90% MC0.5%), 1 h before exposure to the auditory stimulus; and • 4. COMPOUND 1 (in 10% PEG400/90% MC0.5%), 3 h before exposure to the auditory stimulus+AED (in 10% PEG400/90% MC0.5%), 1 h before exposure to the auditory stimulus.

[2] = Plasma and brain concentrations of drugs at the end of the audiogenic seizure experiment (LC-MS); format: in vivo, mouse; settings: for plasma and brain concentrations after administration of the compounds alone or in combination: juvenile DBA/2J mice; for concentration at 1 h: DBA/2J, mouse, oral
Experimental: Briefly, blood was sampled from the vena cava caudalis with a syringe pre-filled with EDTA (ethylenediamine tetraacetic acid) as anticoagulant and centrifuged to yield plasma (for 10 minutes, at 4° C. and 5000 rpm (rounds per minute)). Brain was sampled and homogenized into one volume of cold phosphate buffer (pH 7.4). Following extraction with methanol, concentrations of the compound in plasma and brain were determined using liquid chromatography coupled to mass spectrometry.
as §1

[3] = analyte LTG, vehicle 3 h + LTG 10 mg/kg 1 h before stimulus, oral gavage, mean ± SEM

CC[C@@H](C(N)=O)N1CCCC1=O [LEV, (S)-2-(2-oxopyrrolidin-1-yl)butanamide]
Seizure stage (maximal seizure stage observed during exposure to auditory stimulus) ([1]; vehicle 3 h + LEV 1 mg/kg 1 h before stimulus): 3.0 ± 0.0 | Seizure stage (maximal seizure stage observed during exposure to auditory stimulus) ([1]; vehicle 3 h + LEV 1 mg/kg 1 h before stimulus, listed as levetiracetam): 3 | Seizure stage (maximal seizure stage observed during exposure to auditory stimulus) ([1]; vehicle 3 h + LEV 3 mg/kg 1 h before stimulus): 2.1 ± 0.4 and 2.6 ± 0.3 | plasma and brain concentrations after administration of the compounds alone or in combination ([2]; COMPOUND 1 and LEV): similar | concentration at 1 h ([2]; brain, 1 mg/kg, analyte LEV, vehicle 3 h + LEV 1 mg/kg 1 h before stimulus, oral gavage, mean ± SEM, read-out: Brain concentration total): 224 ± 20 ng/g | concentration at 1 h ([2]; brain, 3 mg/kg, analyte LEV, vehicle 3 h + LEV 3 mg/kg 1 h before stimulus, oral gavage, mean ± SEM, read-out: Brain concentration total): 677 ± 70 ng/g | concentration at 1 h ([2]; brain, 10 mg/kg, analyte LEV, vehicle 3 h + LEV 10 mg/kg 1 h before stimulus, oral gavage, mean ± SEM, read-out: Brain concentration total): 2130 ± 267 ng/g | concentration at 1 h ([2]; brain, 50 mg/kg, analyte LEV, vehicle 3 h + LEV 50 mg/kg 1 h before stimulus, oral gavage, mean ± SEM, read-out: Brain concentration total): 11100 ± 886 ng/g | concentration at 1 h ([2]; brain, analyte LEV, COMPOUND 1 10 mg/kg 3 h + LEV 1 mg/kg 1 h before stimulus, oral gavage, mean ± SEM, read-out: Brain concentration total): 310 ± 34 ng/g | concentration at 1 h ([2]; brain, analyte LEV, COMPOUND 1 10 mg/kg 3 h + LEV 3 mg/kg 1 h before stimulus, oral gavage, mean ± SEM, read-out: Brain concentration total): 787 ± 39 ng/g | concentration at 1 h ([2]; brain, analyte LEV, COMPOUND 1 10 mg/kg 3 h + LEV 10 mg/kg 1 h before stimulus, oral gavage, mean ± SEM, read-out: Brain concentration total): 2590 ± 169 ng/g | concentration at 1 h ([2]; brain, analyte LEV, COMPOUND 1 10 mg/kg 3 h + LEV 50 mg/kg 1 h before stimulus, oral gavage, mean ± SEM, read-out: Brain concentration total): 12600 ± 549 ng/g | concentration at 1 h ([2]; brain, analyte LEV, COMPOUND 1 30 mg/kg 3 h + LEV 3 mg/kg 1 h before stimulus, oral gavage, mean ± SEM, read-out: Brain concentration total): 714 ± 59 ng/g | concentration at 1 h ([2]; brain, analyte LEV, COMPOUND 1 30 mg/kg 3 h + LEV 10 mg/kg 1 h before stimulus, oral gavage, mean ± SEM, read-out: Brain concentration total): 2150 ± 142 ng/g | concentration at 1 h ([2]; brain, analyte LEV, COMPOUND 1 30 mg/kg 3 h + LEV 50 mg/kg 1 h before stimulus, oral gavage, mean ± SEM, read-out: Brain concentration total): 13500 ± 1380 ng/g | concentration at 1 h ([2]; plasma, 1 mg/kg, analyte LEV, vehicle 3 h + LEV 1 mg/kg 1 h before stimulus, oral gavage, mean ± SEM, read-out: Plasma concentration total): 541 ± 48 ng/mL | concentration at 1 h ([2]; plasma, 3 mg/kg, analyte LEV, vehicle 3 h + LEV 3 mg/kg 1 h before stimulus, oral gavage, mean ± SEM, read-out: Plasma concentration total): 1170 ± 53 ng/mL | concentration at 1 h ([2]; plasma, 10 mg/kg, analyte LEV, vehicle 3 h + LEV 10 mg/kg 1 h before stimulus, oral gavage, mean ± SEM, read-out: Plasma concentration total): 4530 ± 473 ng/mL | concentration at 1 h ([2]; plasma, 50 mg/kg, analyte LEV, vehicle 3 h + LEV 50 mg/kg 1 h before stimulus, oral gavage, mean ± SEM, read-out: Plasma concentration total): 26500 ± 2810 ng/mL | concentration at 1 h ([2]; plasma, analyte LEV, COMPOUND 1 10 mg/kg 3 h + LEV 1 mg/kg 1 h before stimulus, oral gavage, mean ± SEM, read-out: Plasma concentration total): 564 ± 42 ng/mL | concentration at 1 h ([2]; plasma, analyte LEV, COMPOUND 1 10 mg/kg 3 h + LEV 3 mg/kg 1 h before stimulus, oral gavage, mean ± SEM, read-out: Plasma concentration total): 1250 ± 53 ng/mL | concentration at 1 h ([2]; plasma, analyte LEV, COMPOUND 1 10 mg/kg 3 h + LEV 10 mg/kg 1 h before stimulus, oral gavage, mean ± SEM, read-out: Plasma concentration total): 5780 ± 232 ng/mL | concentration at 1 h ([2]; plasma, analyte LEV, COMPOUND 1 10 mg/kg 3 h + LEV 50 mg/kg 1 h before stimulus, oral gavage, mean ± SEM, read-out: Plasma concentration total): 27000 ± 1350 ng/mL | concentration at 1 h ([2]; plasma, analyte LEV, COMPOUND 1 30 mg/kg 3 h + LEV 3 mg/kg 1 h before stimulus, oral gavage, mean ± SEM, read-out: Plasma concentration total): 1230 ± 64 ng/mL | concentration at 1 h ([2]; plasma, analyte LEV, COMPOUND 1 30 mg/kg 3 h + LEV 10 mg/kg 1 h before stimulus, oral gavage, mean ± SEM, read-out: Plasma concentration total): 3880 ± 226 ng/mL | concentration at 1 h ([2]; plasma, analyte LEV, COMPOUND 1 30 mg/kg 3 h + LEV 50 mg/kg 1 h before stimulus, oral gavage, mean ± SEM, read-out: Plasma concentration total): 26200 ± 2400 ng/mL | Brain concentration total ([2]; analyte LEV, vehicle 3 h + LEV 3 mg/kg 1 h before stimulus, oral gavage, mean ± SEM): 675 ± 82 ng/g | Brain concentration total ([2]; analyte LEV, vehicle 3 h + LEV 10 mg/kg 1 h before stimulus, oral gavage, mean ± SEM): 2307 ± 207 ng/g | Brain concentration total ([2]; analyte LEV, vehicle 3 h + LEV 50 mg/kg 1 h before stimulus, oral gavage, mean ± SEM): 11318 ± 1440 ng/g

Nc1nnc(-c2cccc(Cl)c2Cl)c(N)n1 [LTG, 6-(2,3-dichlorophenyl)-1,2,4-triazine-3,5-diamine]
Seizure stage (maximal seizure stage observed during exposure to auditory stimulus) ([1]; vehicle 3 h + LTG 3 mg/kg 1 h before stimulus): 1.9 ± 0.2 | Seizure stage (maximal seizure stage observed during exposure to auditory stimulus) ([1]; vehicle 3 h + LTG 3 mg/kg 1 h before stimulus, listed as lamotrigine): 2 | Seizure stage (maximal seizure stage observed during exposure to auditory stimulus) ([1]; vehicle 3 h + LTG 30 mg/kg 1 h before stimulus): 0.2 ± 0.2 # | plasma and brain concentrations after administration of the compounds alone or in combination ([2]; COMPOUND 1 and lamotrigine): similar | concentration at 1 h ([2]; brain, 3 mg/kg, analyte LTG, vehicle 3 h + LTG 3 mg/kg 1 h before stimulus, oral gavage, mean ± SEM, read-out: Brain concentration total): 1490 ± 128 ng/g | concentration at 1 h ([2]; brain, 10 mg/kg, analyte LTG, vehicle 3 h + LTG 10 mg/kg 1 h before stimulus, oral gavage, mean ± SEM, read-out: Brain concentration total): 3260 ± 144 ng/g | concentration at 1 h ([2]; brain, 30 mg/kg, analyte LTG, vehicle 3 h + LTG 30 mg/kg 1 h before stimulus, oral gavage, mean ± SEM, read-out: Brain concentration total): 8890 ± 248 ng/g | concentration at 1 h ([2]; brain, analyte LTG, COMPOUND 1 10 mg/kg 3 h + LTG 10 mg/kg 1 h before stimulus, oral gavage, mean ± SEM, read-out: Brain concentration total): 3690 ± 393 ng/g | concentration at 1 h ([2]; brain, analyte LTG, COMPOUND 1 30 mg/kg 3 h + LTG 3 mg/kg 1 h before stimulus, oral gavage, mean ± SEM, read-out: Brain concentration total): 1370 ± 100 ng/g | concentration at 1 h ([2]; brain, analyte LTG, COMPOUND 1 30 mg/kg 3 h + LTG 10 mg/kg 1 h before stimulus, oral gavage, mean ± SEM, read-out: Brain concentration total): 3660 ± 310 ng/g | concentration at 1 h ([2]; brain, analyte LTG, COMPOUND 1 30 mg/kg 3 h + LTG 30 mg/kg 1 h before stimulus, oral gavage, mean ± SEM, read-out: Brain concentration total): 8560 ± 853 ng/g | concentration at 1 h ([2]; plasma, 3 mg/kg, analyte LTG, vehicle 3 h + LTG 3 mg/kg 1 h before stimulus, oral gavage, mean ± SEM, read-out: Plasma concentration total): 293 ± 27 ng/mL | concentration at 1 h ([2]; plasma, 10 mg/kg, analyte LTG, vehicle 3 h + LTG 10 mg/kg 1 h before stimulus, oral gavage, mean ± SEM, read-out: Plasma concentration total): 930 ± 77 ng/mL | concentration at 1 h ([2]; plasma, 30 mg/kg, analyte LTG, vehicle 3 h + LTG 30 mg/kg 1 h before stimulus, oral gavage, mean ± SEM, read-out: Plasma concentration total): 3560 ± 165 ng/mL | concentration at 1 h ([2]; plasma, analyte LTG, COMPOUND 1 10 mg/kg 3 h + LTG 10 mg/kg 1 h before stimulus, oral gavage, mean ± SEM, read-out: Plasma concentration total): 859 ± 101 ng/mL | concentration at 1 h ([2]; plasma, analyte LTG, COMPOUND 1 30 mg/kg 3 h + LTG 3 mg/kg 1 h before stimulus, oral gavage, mean ± SEM, read-out: Plasma concentration total): 284 ± 18 ng/mL | concentration at 1 h ([2]; plasma, analyte LTG, COMPOUND 1 30 mg/kg 3 h + LTG 10 mg/kg 1 h before stimulus, oral gavage, mean ± SEM, read-out: Plasma concentration total): 1330 ± 102 ng/mL | concentration at 1 h ([2]; plasma, analyte LTG, COMPOUND 1 30 mg/kg 3 h + LTG 30 mg/kg 1 h before stimulus, oral gavage, mean ± SEM, read-out: Plasma concentration total): 2800 ± 475 ng/mL | Brain concentration total [2, 3]: 4054 ± 323 ng/g | Plasma concentration total [2, 3]: 1203 ± 77 ng/mL
